This is an account of results in US10624916B2, “Nutritional formulations using human milk oligosaccharides for modulating inflammation” (ABBOTT LABORATORIES, priority 2012, dated 2020).

The test system of the experiment is platelet neutrophil complex (PNC) formation. The experiment in a line: in vitro simulation of PNC formation (ADP-stimulated, % CD11b+CD42a+ events). The format is cell-based, human. As to conditions: 125 μg/mL; for individuals in whom PNC formation decreased: 3 donors, Table 4; for % CD11b+CD42a+ in the tested condition as a percent of those events that were CD11b+CD42a+ under ADP stimulation, average: average of subjects; for % CD11b+CD42a+ in the tested condition as a percent of those events that were CD11b+CD42a+ under ADP stimulation, average / % CD11b+CD42a+ in the tested condition as a percent of those events that were CD11b+CD42a+ under ADP stimulation: 15 minutes with ingredient, then ADP (10 μM) 15 minutes; for effect on PNC formation (in words): 15 minute ingredient incubation, n=2-3 individuals, FIG. 1. The method, then: Data was generated using an in vitro simulation of PNC formation with a 15 minute ingredient incubation period.
Test concentration was 125 μg/mL for all ingredients tested. Cells were incubated with test ingredients or medium alone (ADP) for 15 minutes. ADP (10 μM) was added to each tube and incubated for 15 minutes. The ADP alone contained no test ingredient. Data is expressed as % CD11b+CD42a+ in the tested conditions as a percent of those events that were CD11b+CD42a+ under ADP stimulation.

As to `CC(=O)N[C@H]1[C@H](O[C@H]2[C@@H](O)[C@@H](CO)O[C@@H](O[C@H]3[C@H](O)[C@@H](O)C(O)O[C@@H]3CO)[C@@H]2O)O[C@H](CO)[C@@H](O[C@@H]2O[C@H](CO)[C@H](O)[C@H](O)[C@H]2O)[C@@H]1O` (mixture of isomers) [LNnT, lacto-N-neotetraose], the “individuals in whom PNC formation decreased” value was “decreased PNC formation in 2 out of the 3 subjects tested” and the “% CD11b+CD42a+ in the tested condition as a percent of those events that were CD11b+CD42a+ under ADP stimulation, average” value was 75.4%. The “% CD11b+CD42a+ in the tested condition as a percent of those events that were CD11b+CD42a+ under ADP stimulation” value (subject 1) is listed as 102.3%. Besides, the “% CD11b+CD42a+ in the tested condition as a percent of those events that were CD11b+CD42a+ under ADP stimulation” value (subject 2) is on record as 82.9%. Besides, the “% CD11b+CD42a+ in the tested condition as a percent of those events that were CD11b+CD42a+ under ADP stimulation” value (subject 3) was 41.1%.

Take `CC(=O)N[C@H]1[C@H]([C@H](O)[C@H](O)CO)O[C@@](OC[C@H]2O[C@@H](O[C@H]3[C@H](O)[C@@H](O)[C@H](O)O[C@@H]3CO)[C@H](O)[C@@H](O)[C@H]2O)(C(=O)O)C[C@@H]1O` [6′SL, 6′-sialyllactose, reference compound]: the “effect on PNC formation (in words)” value is reported as “do not decrease PNC formation” and the “% CD11b+CD42a+ in the tested condition as a percent of those events that were CD11b+CD42a+ under ADP stimulation, average” value is 94.2%. Moreover, the “% CD11b+CD42a+ in the tested condition as a percent of those events that were CD11b+CD42a+ under ADP stimulation” value (subject 1) is reported as 90.1%. For the setting “subject 2”, the “% CD11b+CD42a+ in the tested condition as a percent of those events that were CD11b+CD42a+ under ADP stimulation” value was 59.8%. The “% CD11b+CD42a+ in the tested condition as a percent of those events that were CD11b+CD42a+ under ADP stimulation” value (subject 3) is on record as 132.8%.

Consider 3-fucosyllactose [3FL], for which the “effect on PNC formation (in words)” value is recorded as “did not decrease PNC formation” and the “% CD11b+CD42a+ in the tested condition as a percent of those events that were CD11b+CD42a+ under ADP stimulation, average” value is listed as 83.1%. In addition, the “% CD11b+CD42a+ in the tested condition as a percent of those events that were CD11b+CD42a+ under ADP stimulation” value (subject 1) is on record as 80.8%. Further, the “% CD11b+CD42a+ in the tested condition as a percent of those events that were CD11b+CD42a+ under ADP stimulation” value (subject 2) is 64.3%. Besides, the “% CD11b+CD42a+ in the tested condition as a percent of those events that were CD11b+CD42a+ under ADP stimulation” value (subject 3) is 104.1%.

Take `CC(=O)N[C@H]1[C@H]([C@H](O)[C@H](O)CO)O[C@@](O[C@H]2[C@@H](O)[C@@H](CO)O[C@@H](O[C@H]3[C@H](O)[C@@H](O)C(O)O[C@@H]3CO)[C@@H]2O)(C(=O)O)C[C@@H]1O` (some centres unmarked) [3′SL, 3′-sialyllactose, reference compound]: the “effect on PNC formation (in words)” value is on record as “do not decrease PNC formation” and the “% CD11b+CD42a+ in the tested condition as a percent of those events that were CD11b+CD42a+ under ADP stimulation, average” value is listed as 99.2%. In addition, the “% CD11b+CD42a+ in the tested condition as a percent of those events that were CD11b+CD42a+ under ADP stimulation” value (subject 1) is 91.3%. The “% CD11b+CD42a+ in the tested condition as a percent of those events that were CD11b+CD42a+ under ADP stimulation” value (subject 2) is reported as 89.3%. Also, the “% CD11b+CD42a+ in the tested condition as a percent of those events that were CD11b+CD42a+ under ADP stimulation” value (subject 3) was 117.1%.

On to 2′-fucosyllactose [2′FL], for which the “individuals in whom PNC formation decreased” value is listed as “decreased PNC formation in all 3 individuals tested”; the “effect on PNC formation (in words)” value is given as “significantly reduces PNC formation”; the “% CD11b+CD42a+ in the tested condition as a percent of those events that were CD11b+CD42a+ under ADP stimulation, average” value was 66.9%. For the same molecule, the “% CD11b+CD42a+ in the tested condition as a percent of those events that were CD11b+CD42a+ under ADP stimulation” value (subject 1) is 87.8%. Besides, the “% CD11b+CD42a+ in the tested condition as a percent of those events that were CD11b+CD42a+ under ADP stimulation” value (subject 2) is on record as 62.1%. The “% CD11b+CD42a+ in the tested condition as a percent of those events that were CD11b+CD42a+ under ADP stimulation” value (subject 3) was 50.7%.
